Results from paper PMC6981581, “N-(2-Arylmethylthio-4-Chloro-5-Methylbenzenesulfonyl)amide Derivatives as Potential Antimicrobial Agents—Synthesis and Biological Studies” (International Journal of Molecular Sciences, 2019).
≈ marks a conversion by molar mass, not a printed value.

Tests used:
Type in all cases: cell-based
[1] = test system: Escherichia coli ATCC 11229; assay: Broth dilution MIC/MBC, reference strain; details: for MBC / MIC: Escherichia coli, ATCC11229
Method: (§1) The tests were carried out using a serial dilution method, allowing the determination of MIC (minimal concentration inhibiting bacterial growth), MBC (minimal bactericidal concentration), and MFC (minimal fungicidal concentration) values.
(§2) Antimicrobial activity was tested using the following reference strains: Staphylococcus aureus ATCC 6538 (MSSA), Staphylococcus aureus ATCC 43300 (MRSA), Staphylococcus epidermidis PCM 2118, Escherichia coli ATCC 11229, Pseudomonas aeruginosa ATCC 15442, Proteus vulgaris NCTC 4635, Enterococcus faecalis ATCC 11420, and Candida albicans ATCC 10231.
(§3) A broth dilution method was used to determine minimal inhibitory concentration (MIC) for tested compounds as recommended by Clinical Laboratory Standards Institute (CLSI) guidelines. Investigated compounds were diluted in Mueller Hinton Broth 2 (Sigma-Aldrich Co., St. Louis, MO, USA) in polypropylene 96-well plates and initial inoculum 5 × 10^5 cfu/mL were incubated at 37 °C for 18 h. MIC was taken as the lowest drug concentration at which an observable growth was inhibited. […] The loopful (10 µL) of the tested sample was transferred to Tryptic Soy Agar (TSA, Becton-Dickinson, Franklin Lakes, NJ, USA) and incubated at 37 °C for 48 h. […] Drug Solutions were made fresh on the day of the assay. All experiments were performed in triplicate.

[2] = test system: Proteus vulgaris NCTC 4635; assay: Broth dilution MIC/MBC, reference strain; details: for MBC / MIC: Proteus vulgaris, NCTC4635
Method: as §1, §2, §3

[3] = test system: Pseudomonas aeruginosa ATCC 15442; assay: Broth dilution MIC/MBC, reference strain; details: for MBC / MIC: Pseudomonas aeruginosa, ATCC15442
Method: as §1, §2, §3

[4] = test system: Staphylococcus aureus ATCC 43300 (MRSA); assay: Broth dilution MIC/MBC, reference strain; details: for MBC / MIC: Staphylococcus aureus
Method: as §1, §2, §3

[5] = test system: Staphylococcus epidermidis PCM 2118; assay: Broth dilution MIC/MBC, reference strain; details: for MIC / MBC: Staphylococcus epidermidis; for MIC: PCM2118; for MBC: PCM2118, S. epidermidis PCM 2118
Method: as §1, §2, §3

[6] = test system: Staphylococcus aureus ATCC 6538 (MSSA); assay: Broth dilution MIC/MBC, reference strain; details: for MBC / MIC: Staphylococcus aureus
Method: as §1, §2, §3

[7] = test system: Enterococcus faecalis ATCC 11420; assay: Broth dilution MIC/MBC, reference strain; details: for MBC / MIC: Enterococcus faecalis, ATCC11420
Method: as §1, §2, §3

[8] = test system: Candida albicans ATCC 10231; assay: Broth dilution MIC/MFC, reference fungal strain; details: for MFC / MIC: Candida albicans, ATCC10231
Method: as §1, §2, §3

| SMILES | MBC [1] [µg/mL] | MIC [1] [µg/mL] | MBC [2] [µg/mL] | MIC [2] [µg/mL] | MBC [3] [µg/mL] | MIC [3] [µg/mL] | MBC [4] [µg/mL] | MIC [4] [µg/mL] | MIC [5] [µg/mL] | MBC [5] [µg/mL] | MBC [6] [µg/mL] | MIC [6] [µg/mL] | MBC [7] [µg/mL] | MIC [7] [µg/mL] | MFC [8] [µg/mL] | MIC [8] [µg/mL] | also measured |
| --- | --- | --- | --- | --- | --- | --- | --- | --- | --- | --- | --- | --- | --- | --- | --- | --- | --- |
| Cc1cc(S(=O)(=O)NC(=O)C=Cc2ccccc2)c(SCc2ccccc2)cc1Cl [Compound 13, N-{[2-(Benzylthio)-4-chloro-5-methylphenyl]sulfonyl}cinnamamide] | > 128 | 128 (≈ 279 µM) | > 128 | 128 (≈ 279 µM) | > 128 | 128 (≈ 279 µM) | > 128 | 32 (≈ 69.9 µM) | 32 (≈ 69.9 µM) | > 128 | > 128 | 32 (≈ 69.9 µM) | > 128 | > 128 | 128 (≈ 279 µM) | 64 (≈ 140 µM) | MBC/MIC ([1]; E. c. ATCC 11229): >1; MBC/MIC ([2]; P. v. NCTC 4635): >1; MBC/MIC ([3]; P. a. ATCC 15442): >1; MBC/MIC ([4]; S. a. ATCC 43300): >4; MBC/MIC ([5]; S. e. PCM 2118): >4; MBC/MIC ([6]; S. a. ATCC 6538): >4; MBC/MIC ([7]; E. f. ATCC 11420): >1; MFC/MIC ([8]; C. a. ATCC 10231): 2 |
| Cc1cc(S(=O)(=O)NC(=O)CCC2CCCCC2)c(SCc2ccccc2)cc1Cl [Compound 8, N-(2-Benzylthio-4-chloro-5-methylbenzenesulfonyl)-3-cyclohexylpropanamide] | > 128 | 128 (≈ 275 µM) | > 128 | 64 (≈ 137 µM) | > 128 | 128 (≈ 275 µM) | > 128 | 16 (≈ 34.3 µM) | 8 (≈ 17.2 µM) | 32 (≈ 68.7 µM) | > 128 | 32 (≈ 68.7 µM) | > 128 | 128 (≈ 275 µM) | 128 (≈ 275 µM) | 64 (≈ 137 µM) |  |
